Experimental data: ChEMBL document CHEMBL3407331, “Discovery of AM-7209, a potent and selective 4-amidobenzoic acid inhibitor of the MDM2-p53 interaction” (J Med Chem, 2014)
Active and inactive are the calls of the source. The calls are words filed in the database; no cut-off is given here.

Experiments:
CYP3A4 [1] = target: T1, CYP3A4 (Homo sapiens, UniProt P08684); experiment: Time-dependent inhibition of CYP3A4 (unknown origin) assessed as remaining activity at 10 uM after 30 mins; type: ADME; conditions: read-out: Activity
PXR (NR1I2) = target: T2, PXR (NR1I2) (Homo sapiens, UniProt O75469); experiment: Activation of human PXR at 2 uM relative to control; type: ADME; conditions: read-out: Activity
T2 sequence (O75469 whole entry): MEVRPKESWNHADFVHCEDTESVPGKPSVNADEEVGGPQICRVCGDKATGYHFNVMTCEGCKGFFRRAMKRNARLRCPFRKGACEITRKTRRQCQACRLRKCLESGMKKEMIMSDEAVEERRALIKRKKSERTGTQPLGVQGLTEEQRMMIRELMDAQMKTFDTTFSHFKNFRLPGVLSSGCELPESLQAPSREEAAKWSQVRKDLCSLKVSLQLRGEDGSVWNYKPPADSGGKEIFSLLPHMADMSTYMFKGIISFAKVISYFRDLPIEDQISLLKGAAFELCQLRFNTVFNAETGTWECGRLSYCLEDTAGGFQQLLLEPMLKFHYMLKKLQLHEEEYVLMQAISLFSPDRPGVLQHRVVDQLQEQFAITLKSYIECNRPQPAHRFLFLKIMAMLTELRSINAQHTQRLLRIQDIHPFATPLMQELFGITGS

CYP3A4 [2] = target: T1, CYP3A4; experiment: Inhibition of CYP3A4 (unknown origin) at 3 uM; type: ADME
[3] = Drug metabolism in cynomolgus monkey hepatocytes treated with AMG 232 at 10 uM after 2 hrs by LC/MS analysis; type: ADME, cell-based, Macaca fascicularis, Hepatocyte
[4] = Drug metabolism in human hepatocytes treated with 4-(2-((3R,5R,6S)-1-((S)-2-(tert-Butylsulfonyl)-1-cyclopropylethyl)-6-(4-chloro-3-fluorophenyl)-5-(3-chlorophenyl)-3-methyl-2-oxopiperidin-3-yl)acetamido)-2-methoxybenzoic acid at 10 uM after 2 hrs by LC/MS analysis; type: ADME, cell-based, Hepatocyte
[5] = Drug metabolism in rat hepatocytes treated with AMG 232 at 10 uM after 2 hrs by LC/MS analysis; type: ADME, cell-based, Hepatocyte
[6] = Drug metabolism in dog hepatocytes treated with AMG 232 at 10 uM after 2 hrs by LC/MS analysis; type: ADME, cell-based, Canis lupus familiaris, Hepatocyte
[7] = Drug metabolism in cynomolgus monkey hepatocytes treated with 4-(2-((3R,5R,6S)-1-((S)-2-(tert-Butylsulfonyl)-1-cyclopropylethyl)-6-(4-chloro-3-fluorophenyl)-5-(3-chlorophenyl)-3-methyl-2-oxopiperidin-3-yl)acetamido)-2-methoxybenzoic acid at 10 uM after 2 hrs by LC/MS analysis; type: ADME, cell-based, Macaca fascicularis, Hepatocyte
[8] = Drug metabolism in rat hepatocytes treated with 4-(2-((3R,5R,6S)-1-((S)-2-(tert-Butylsulfonyl)-1-cyclopropylethyl)-6-(4-chloro-3-fluorophenyl)-5-(3-chlorophenyl)-3-methyl-2-oxopiperidin-3-yl)acetamido)-2-methoxybenzoic acid at 10 uM after 2 hrs by LC/MS analysis; type: ADME, cell-based, Hepatocyte
[9] = Drug metabolism in human hepatocytes treated with AMG 232 at 10 uM after 2 hrs by LC/MS analysis; type: ADME, cell-based, Hepatocyte
[10] = Drug metabolism in dog hepatocytes treated with 4-(2-((3R,5R,6S)-1-((S)-2-(tert-Butylsulfonyl)-1-cyclopropylethyl)-6-(4-chloro-3-fluorophenyl)-5-(3-chlorophenyl)-3-methyl-2-oxopiperidin-3-yl)acetamido)-2-methoxybenzoic acid at 10 uM after 2 hrs by LC/MS analysis; type: ADME, cell-based, Canis lupus familiaris, Hepatocyte
Hepatocyte = experiment: cells; conditions: Homo sapiens
SJSA-1 [11] = experiment: cells; conditions: Homo sapiens, SJSA-1, 16 h
[12] = target: T3, E3 ubiquitin-protein ligase Mdm2 (Homo sapiens, UniProt Q00987)
[13] = target: T3, E3 ubiquitin-protein ligase Mdm2; remark: listed apart in the source
animal or person = conditions: Homo sapiens, HCT-116, po, 240 h
[14] = Drug metabolism in dog hepatocytes assessed as oxidative metabolite M2 formation at 10 uM after 2 hrs by LC/MS analysis; type: ADME, cell-based, Canis lupus familiaris, Hepatocyte
[15] = target: T3, E3 ubiquitin-protein ligase Mdm2; experiment: Binding affinity to human MDM2 by isothermal titration calorimetry
[16] = Drug metabolism in human hepatocytes assessed as demethylated metabolite M3 formation at 10 uM after 2 hrs by LC/MS analysis; type: ADME, cell-based, Hepatocyte
[17] = Drug metabolism in rat hepatocytes assessed as demethylated metabolite M3 formation at 10 uM after 2 hrs by LC/MS analysis; type: ADME, cell-based, Hepatocyte
[18] = Clearance in iv dosed dog; type: ADME, organism-based, Canis lupus familiaris; conditions: in vivo
[19] = Antiproliferative activity against human HCT116 cells expressing p53 wild type after 16 hrs by BrdU proliferation assay; type: functional, cell-based; conditions: HCT-116, 16 h
[20] = Drug metabolism in rat hepatocytes assessed as oxidative metabolite M2 formation at 10 uM after 2 hrs by LC/MS analysis; type: ADME, cell-based, Hepatocyte
[21] = target: T3, E3 ubiquitin-protein ligase Mdm2; remark: listed apart in the source
[22] = Clearance in iv dosed mouse; type: ADME, organism-based; conditions: in vivo
[23] = Antitumor activity against human HCT116 cells xenografted in athymic nude mouse assessed as tumor growth inhibition at 100 mg/kg, po qd starting on day 10 of tumor implantation; type: functional; conditions: HCT-116, 240 h, read-out: TGI
[24] = Drug metabolism in cynomolgus monkey hepatocytes assessed as oxidative metabolite M2 formation at 10 uM after 2 hrs by LC/MS analysis; type: ADME, cell-based, Macaca fascicularis, Hepatocyte
[25] = Drug metabolism in dog hepatocytes assessed as demethylated metabolite M3 formation at 10 uM after 2 hrs by LC/MS analysis; type: ADME, cell-based, Canis lupus familiaris, Hepatocyte
SJSA-1 [26] = experiment: Antitumor activity against human SJSA1 cells xenografted in athymic nude mouse assessed as complete tumor regression at 25 to 50 mg/kg, po qd for 4 days measured after 30 days; type: functional, organism-based
Mus musculus = experiment: Toxicity in human SJSA1 cells xenografted athymic nude mouse assessed as body weight loss at 10 to 50 mg/kg, po qd for 4 days; type: organism-based, SJSA-1; parameters: dose 10-50 mg/kg, route oral; conditions: in vivo, 96 h
[27] = Drug metabolism in cynomolgus monkey hepatocytes assessed as demethylated metabolite M3 formation at 10 uM after 2 hrs by LC/MS analysis; type: ADME, cell-based, Macaca fascicularis, Hepatocyte
[28] = Oral bioavailability in dog; type: ADME, organism-based, Canis lupus familiaris; conditions: in vivo
[29] = Oral bioavailability in mouse; type: ADME, organism-based; conditions: in vivo
[30] = Drug metabolism in human hepatocytes assessed as oxidative metabolite M2 formation at 10 uM after 2 hrs by LC/MS analysis; type: ADME, cell-based, Hepatocyte
[31] = Antiproliferative activity p53 -deficient human HCT116 cells after 16 hrs by BrdU proliferation assay; type: functional, cell-based; conditions: HCT-116, 16 h

T3 sequence (Q00987 whole entry): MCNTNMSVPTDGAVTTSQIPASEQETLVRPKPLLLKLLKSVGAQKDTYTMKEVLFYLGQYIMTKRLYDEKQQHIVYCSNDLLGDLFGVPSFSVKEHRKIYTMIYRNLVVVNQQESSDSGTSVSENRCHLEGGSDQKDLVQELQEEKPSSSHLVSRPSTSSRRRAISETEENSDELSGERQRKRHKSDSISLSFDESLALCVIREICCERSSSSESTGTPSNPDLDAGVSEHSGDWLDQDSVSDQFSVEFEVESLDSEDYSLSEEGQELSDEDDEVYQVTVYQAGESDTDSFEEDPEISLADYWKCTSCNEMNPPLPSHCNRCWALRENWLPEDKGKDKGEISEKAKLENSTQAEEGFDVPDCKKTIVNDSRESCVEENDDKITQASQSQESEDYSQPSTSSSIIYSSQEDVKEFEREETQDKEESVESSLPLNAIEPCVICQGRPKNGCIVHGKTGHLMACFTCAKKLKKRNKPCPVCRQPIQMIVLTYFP
T1 sequence (P08684 whole entry): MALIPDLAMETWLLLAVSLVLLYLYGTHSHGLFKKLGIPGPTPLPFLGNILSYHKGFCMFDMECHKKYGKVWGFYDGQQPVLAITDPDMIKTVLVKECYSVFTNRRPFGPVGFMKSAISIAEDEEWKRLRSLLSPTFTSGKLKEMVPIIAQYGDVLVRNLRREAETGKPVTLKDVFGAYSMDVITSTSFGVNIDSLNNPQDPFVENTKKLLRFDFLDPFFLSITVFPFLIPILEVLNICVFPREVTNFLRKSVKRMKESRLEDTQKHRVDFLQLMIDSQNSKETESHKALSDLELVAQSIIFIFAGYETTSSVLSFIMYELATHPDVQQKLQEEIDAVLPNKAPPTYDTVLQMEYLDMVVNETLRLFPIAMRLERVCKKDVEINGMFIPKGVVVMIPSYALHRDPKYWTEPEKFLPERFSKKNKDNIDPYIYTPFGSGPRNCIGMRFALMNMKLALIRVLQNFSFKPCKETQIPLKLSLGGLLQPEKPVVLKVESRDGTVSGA

COc1cc(NC(=O)C[C@@]2(C)C[C@H](c3cccc(Cl)c3F)[C@@H](c3ccc(Cl)cc3)N([C@H](CS(=O)(=O)C(C)(C)C)C3CC3)C2=O)ccc1C(=O)O
activity at 0.5 h, 10 µM (CYP3A4 [1]): 72%
activity at 2 µM (PXR (NR1I2)): 0%
inhibition at 3 µM (CYP3A4 [2]): 14%

CC(C)[C@@H](CS(=O)(=O)C(C)C)N1C(=O)[C@@](C)(CC(=O)OC2O[C@H](C(=O)O)[C@@H](O)[C@H](O)[C@H]2O)C[C@H](c2cccc(Cl)c2)[C@H]1c1ccc(Cl)cc1 (stereo partly specified)
Drug metabolism [3]: metabolite_detected
Drug metabolism [4]: metabolite_detected
Drug metabolism [5]: metabolite_detected
Drug metabolism [6]: metabolite_detected
Drug metabolism [7]: metabolite_detected
Drug metabolism [8]: metabolite_detected
Drug metabolism [9]: metabolite_detected
Drug metabolism [10]: metabolite_detected

CC(C)(C)S(=O)(=O)C[C@H](C1CC1)N1C(=O)[C@@](C)(CC(=O)O)C[C@H](c2cccc(Cl)c2)[C@H]1c1ccc(Cl)c(F)c1
CLint (Hepatocyte): 26 µL/min/10⁶ cells

CC(C)(C)S(=O)(=O)C[C@H](C1CC1)N1C(=O)[C@@](C)(CC(=O)N2CC(C(=O)O)C2)C[C@H](c2cccc(Cl)c2)[C@H]1c1ccc(Cl)cc1
IC50 (SJSA-1 [11]): 46 nM

CC(C)(C)S(=O)(=O)C[C@H](C1CC1)N1C(=O)[C@@](C)(CC(=O)Nc2cccc(C(=O)O)c2)C[C@H](c2cccc(Cl)c2)[C@H]1c1ccc(Cl)cc1
IC50 (SJSA-1 [11]): 9.7 nM

CC(C)(C)S(=O)(=O)C[C@H](C1CC1)N1C(=O)[C@@](C)(CC(=O)O)C[C@H](c2cccc(Cl)c2F)[C@H]1c1ccc(Cl)cc1
CLint (Hepatocyte): 27 µL/min/10⁶ cells
IC50 [12]: < 0.1 nM
IC50 (SJSA-1 [11]): 0.8 nM
IC50 [13]: 6.4 nM

COc1cc(NC(=O)C[C@@]2(C)C[C@H](c3cccc(Cl)c3)[C@@H](c3ccc(Cl)c(F)c3)N([C@H](CS(=O)(=O)C(C)(C)C)C3CC3)C2=O)ccc1C(=O)O
ED50 (animal or person): 10 mg/kg
Drug metabolism [14]: metabolite_detected
Kd [15]: 0.038 nM
Drug metabolism [16]: metabolite_detected
Drug metabolism [17]: metabolite_detected
clearance [18]: 11.5 mL/min/kg
IC50 [19]: 2 nM
activity at 0.5 h, 10 µM (CYP3A4 [1]): 63%
Drug metabolism [20]: metabolite_detected
IC50 [21]: 0.6 nM
clearance [22]: 0.433 mL/min/kg
inhibition in vivo at 100 mg/kg [23]: 100%
Drug metabolism [24]: metabolite_detected
Drug metabolism [25]: metabolite_detected
activity at 2 µM (PXR (NR1I2)): 0%
Activity (SJSA-1 [26]): Active
Activity (Mus musculus): <= 5%
Drug metabolism [27]: metabolite_detected
bioavailability [28]: 45%
bioavailability [29]: 30%
inhibition at 3 µM (CYP3A4 [2]): < 10%
Drug metabolism [30]: metabolite_detected
IC50 [31]: > 25 µM

CN(C(=O)C[C@@]1(C)C[C@H](c2cccc(Cl)c2)[C@@H](c2ccc(Cl)cc2)N([C@H](CS(=O)(=O)C(C)(C)C)C2CC2)C1=O)c1ccc(C(=O)O)cc1
IC50 (SJSA-1 [11]): 198 nM

CC(C)(C)S(=O)(=O)C[C@H](C1CC1)N1C(=O)[C@@](C)(CC(=O)Nc2ccc(C(=O)O)cn2)C[C@H](c2cccc(Cl)c2)[C@H]1c1ccc(Cl)cc1
IC50 (SJSA-1 [11]): 9 nM

COc1cc(C(=O)O)ccc1NC(=O)C[C@@]1(C)C[C@H](c2cccc(Cl)c2)[C@@H](c2ccc(Cl)cc2)N([C@H](CS(=O)(=O)C(C)(C)C)C2CC2)C1=O
IC50 (SJSA-1 [11]): 6.9 nM

CC(C)(C)S(=O)(=O)C[C@H](C1CC1)N1C(=O)[C@@](C)(CC(=O)Nc2ccc(CC(=O)O)cc2)C[C@H](c2cccc(Cl)c2)[C@H]1c1ccc(Cl)cc1
IC50 (SJSA-1 [11]): 2.7 nM

CC(C)(C)S(=O)(=O)C[C@H](C1CC1)N1C(=O)[C@@](C)(CC(=O)N2CCC(C(=O)O)CC2)C[C@H](c2cccc(Cl)c2)[C@H]1c1ccc(Cl)cc1
IC50 (SJSA-1 [11]): 11.7 nM
